Assay results reported in ChEMBL document CHEMBL1137894, “3-Thio-quinolinone maxi-K openers for the treatment of erectile dysfunction” (2004).

Columns and labels:
Oryctolagus cuniculus = organism: Oryctolagus cuniculus; test: Percentage relaxation of phenylephrine-contracted rabbit corpus cavernosum tissue strips at concentration of 10 uM; assay type: functional
Oocyte [1] = test: Percentage opening of human Maxi-K channel in transfected oocyte cells at 20 uM; assay type: cell-based
Oocyte [2] = test: Percentage opening of human Maxi-K channel in transfected oocyte cells at 5 uM; assay type: cell-based
Oocyte [3] = test: Percentage opening of human Maxi-K channel in transfected oocyte cells at 10 uM; assay type: cell-based

| SMILES | Relaxation (Oryctolagus cuniculus) [%] | Activity (Oocyte [1]) [%] | Activity (Oocyte [2]) [%] | Activity (Oocyte [3]) [%] |
| --- | --- | --- | --- | --- |
| O=C(CN1CCC(N2CCCCC2)CC1)Nc1ccc(Sc2c(O)nc3ccc(C(F)(F)F)cc3c2-c2cc(Cl)ccc2O)cc1 | 45 | 283 |  |  |
| O=C(CCCN1CCC(N2CCCCC2)CC1)Nc1ccc(Sc2c(O)nc3ccc(C(F)(F)F)cc3c2-c2cc(Cl)ccc2O)cc1 | 28 | 268 |  |  |
| CCN(CC)CC(O)CSc1c(O)nc2ccc(C(F)(F)F)cc2c1-c1cc(Cl)ccc1O (stereo not drawn) | 57 | 192 |  |  |
| CN1CCN(CCC(=O)CSc2c(O)nc3ccc(C(F)(F)F)cc3c2-c2cc(Cl)ccc2O)CC1 |  | 550 |  |  |
| COc1ccc(Cl)cc1-c1c(Sc2ccc(NS(=O)(=O)N(C)C)cc2)c(O)nc2ccc(C(F)(F)F)cc12 |  |  | 114 |  |
| CN1CCN(CCC(=O)Nc2ccc(Sc3c(O)nc4ccc(C(F)(F)F)cc4c3-c3cc(Cl)ccc3O)cc2)CC1 | 30 | 474 |  |  |
| O=c1[nH]c2ccc(C(F)(F)F)cc2c(-c2cc(Cl)ccc2O)c1CCO [BMS-223131] | 83.7 | 378 |  |  |
| COc1ccc(Cl)cc1-c1c(SCC(O)CN2CCC(C)CC2)c(O)nc2ccc(C(F)(F)F)cc12 (stereo not drawn) |  | 115 |  |  |
| O=C(CCCN1CCC(N2CCCCC2)CC1)CSc1c(O)nc2ccc(C(F)(F)F)cc2c1-c1cc(Cl)ccc1O |  | 298 |  |  |
| CN(C)CCN(C)CCC(=O)Nc1ccc(Sc2c(O)nc3ccc(C(F)(F)F)cc3c2-c2cc(Cl)ccc2O)cc1 | 29 | 489 |  |  |
| O=C(CCN1CCCCC1)CSc1c(O)nc2ccc(C(F)(F)F)cc2c1-c1cc(Cl)ccc1O |  | 199 |  |  |
| CCCS(=O)(=O)Nc1ccc(Sc2c(O)nc3ccc(C(F)(F)F)cc3c2-c2cc(Cl)ccc2O)cc1 |  |  | 255 |  |
| Oc1ccc(Cl)cc1-c1c(SCC(O)CN2CCSCC2)c(O)nc2ccc(C(F)(F)F)cc12 (stereo not drawn) | 48 | 319 |  |  |
| O=C(CCN1CCC(N2CCCCC2)CC1)Nc1ccc(Sc2c(O)nc3ccc(C(F)(F)F)cc3c2-c2cc(Cl)ccc2O)cc1 | 23 | 255 |  |  |
| Oc1ccc(Cl)cc1-c1c(SCC(O)CN2CCCC2)c(O)nc2ccc(C(F)(F)F)cc12 (stereo not drawn) |  | 192 |  |  |
| OCCN1CCN(CC(O)CSc2c(O)nc3ccc(C(F)(F)F)cc3c2-c2cc(Cl)ccc2O)CC1 (stereo not drawn) | 44 | 287 |  |  |
| O=C(CN1CCN(c2ccccn2)CC1)Nc1ccc(Sc2c(O)nc3ccc(C(F)(F)F)cc3c2-c2cc(Cl)ccc2O)cc1 | 17 |  | 116 |  |
| CC1CCCN(CCCC(=O)CSc2c(O)nc3ccc(C(F)(F)F)cc3c2-c2cc(Cl)ccc2O)C1 (stereo not drawn) |  | 271 |  |  |
| O=C(CCCN1CCN(c2ccccn2)CC1)Nc1ccc(Sc2c(O)nc3ccc(C(F)(F)F)cc3c2-c2cc(Cl)ccc2O)cc1 | 37 |  |  | 197 |

| SMILES | Relaxation (Oryctolagus cuniculus) [%] | Activity (Oocyte [1]) [%] | Activity (Oocyte [2]) [%] | Activity (Oocyte [3]) [%] |
| --- | --- | --- | --- | --- |
| O=C(CN1CCCC1)Nc1ccc(Sc2c(O)nc3ccc(C(F)(F)F)cc3c2-c2cc(Cl)ccc2O)cc1 | 28 | 291 |  |  |
| CCOC(=O)CN1CCN(C(=O)CSc2c(O)nc3ccc(C(F)(F)F)cc3c2-c2cc(Cl)ccc2O)CC1 | 19 | 281 |  |  |
| O=S(=O)(CC(F)(F)F)Nc1ccc(Sc2c(O)nc3ccc(C(F)(F)F)cc3c2-c2cc(Cl)ccc2O)cc1 |  | 170 |  |  |
| Oc1ccc(Cl)cc1-c1c(SCC(O)CN2CCOCC2)c(O)nc2ccc(C(F)(F)F)cc12 (stereo not drawn) | 49 | 292 |  |  |
| O=S(=O)(Nc1ccc(Sc2c(O)nc3ccc(C(F)(F)F)cc3c2-c2cc(Cl)ccc2O)cc1)C(F)(F)F | 32 | 277 |  |  |
| CN(C)CCN(C)CC(=O)Nc1ccc(Sc2c(O)nc3ccc(C(F)(F)F)cc3c2-c2cc(Cl)ccc2O)cc1 | 16 | 231 |  |  |
| CCCS(=O)(=O)Nc1ccc(Sc2c(O)nc3ccc(C(F)(F)F)cc3c2-c2cc(Cl)ccc2OC)cc1 |  |  | 95 |  |
| CN(C)C1CCN(C(=O)CSc2c(O)nc3ccc(C(F)(F)F)cc3c2-c2cc(Cl)ccc2O)CC1 | 35 | 286 |  |  |
| O=S(=O)(CCCN1CCOCC1)Nc1ccc(Sc2c(O)nc3ccc(C(F)(F)F)cc3c2-c2cc(Cl)ccc2O)cc1 | 35 | 354 |  |  |
| CN(C)C1CCN(CC(=O)Nc2ccc(Sc3c(O)nc4ccc(C(F)(F)F)cc4c3-c3cc(Cl)ccc3O)cc2)CC1 | 19 | 292 |  |  |
| CN(C)CCN1CCN(CC(O)CSc2c(O)nc3ccc(C(F)(F)F)cc3c2-c2cc(Cl)ccc2O)CC1 (stereo not drawn) |  | 113 |  |  |
| CC(=O)N1CCN(CCCC(=O)CSc2c(O)nc3ccc(C(F)(F)F)cc3c2-c2cc(Cl)ccc2O)CC1 |  | 284 |  |  |
| COc1ccc(Cl)cc1-c1c(SCC(O)CN2CCC(O)CC2)c(O)nc2ccc(C(F)(F)F)cc12 (stereo not drawn) |  | 125 |  |  |
| COc1ccc(Cl)cc1-c1c(SCC(O)CN2CCSCC2)c(O)nc2ccc(C(F)(F)F)cc12 (stereo not drawn) |  | 97 |  |  |
| COc1ccc(Cl)cc1-c1c(SCC(O)CN2CCN(C)CC2)c(O)nc2ccc(C(F)(F)F)cc12 (stereo not drawn) |  | 163 |  |  |
| CC1CCN(CCCC(=O)CSc2c(O)nc3ccc(C(F)(F)F)cc3c2-c2cc(Cl)ccc2O)CC1 |  | 213 |  |  |
| O=C(CCCN1CCCC1)Nc1ccc(Sc2c(O)nc3ccc(C(F)(F)F)cc3c2-c2cc(Cl)ccc2O)cc1 | 36 | 280 |  |  |
| COc1ccc(Cl)cc1-c1c(SCC(O)CN2CCN(c3ncccn3)CC2)c(O)nc2ccc(C(F)(F)F)cc12 (stereo not drawn) |  |  | 80 |  |
| O=C(CN1CCOCC1)Nc1ccc(Sc2c(O)nc3ccc(C(F)(F)F)cc3c2-c2cc(Cl)ccc2O)cc1 | 34 |  |  | 296 |

| SMILES | Relaxation (Oryctolagus cuniculus) [%] | Activity (Oocyte [1]) [%] | Activity (Oocyte [2]) [%] | Activity (Oocyte [3]) [%] |
| --- | --- | --- | --- | --- |
| O=C(CCN1CCOCC1)Nc1ccc(Sc2c(O)nc3ccc(C(F)(F)F)cc3c2-c2cc(Cl)ccc2O)cc1 | 22 | 453 |  |  |
| O=C(CCN1CCN(c2ccccn2)CC1)Nc1ccc(Sc2c(O)nc3ccc(C(F)(F)F)cc3c2-c2cc(Cl)ccc2O)cc1 | 37 |  |  | 169 |
| COc1ccc(Cl)cc1-c1c(SCC(O)CN2CCN(C(C)=O)CC2)c(O)nc2ccc(C(F)(F)F)cc12 (stereo not drawn) |  | 192 |  |  |
| CCS(=O)(=O)Nc1ccc(Sc2c(O)nc3ccc(C(F)(F)F)cc3c2-c2cc(Cl)ccc2O)cc1 |  |  |  | 296 |
| O=C(CCN1CCN(CCO)CC1)CSc1c(O)nc2ccc(C(F)(F)F)cc2c1-c1cc(Cl)ccc1O |  | 241 |  |  |
| O=C(CCN1CCC(O)CC1)CSc1c(O)nc2ccc(C(F)(F)F)cc2c1-c1cc(Cl)ccc1O |  | 235 |  |  |
| CN(C)CCCN(C)CC(O)CSc1c(O)nc2ccc(C(F)(F)F)cc2c1-c1cc(Cl)ccc1O (stereo not drawn) |  | 214 |  |  |
| CN1CCN(CC(=O)Nc2ccc(Sc3c(O)nc4ccc(C(F)(F)F)cc4c3-c3cc(Cl)ccc3O)cc2)CC1 | 19 | 246 |  |  |
| CN(CCCN1CCN(C)CC1)CCC(O)CSc1c(O)nc2ccc(C(F)(F)F)cc2c1-c1cc(Cl)ccc1O (stereo not drawn) |  | 515 |  |  |
| O=C(CSc1c(O)nc2ccc(C(F)(F)F)cc2c1-c1cc(Cl)ccc1O)N1CCN(CCOCCO)CC1 | 17 | 205 |  |  |
| O=C(CCN1CCCC1)Nc1ccc(Sc2c(O)nc3ccc(C(F)(F)F)cc3c2-c2cc(Cl)ccc2O)cc1 | 35 | 264 |  |  |
| CN(C)CCCN(C)CCC(=O)CSc1c(O)nc2ccc(C(F)(F)F)cc2c1-c1cc(Cl)ccc1O |  | 178 |  |  |
| CN1CCC(N(C)CCCC(=O)CSc2c(O)nc3ccc(C(F)(F)F)cc3c2-c2cc(Cl)ccc2O)C1 (stereo not drawn) |  | 226 |  |  |
| CN(C)S(=O)(=O)Nc1ccc(Sc2c(O)nc3ccc(C(F)(F)F)cc3c2-c2cc(Cl)ccc2O)cc1 |  |  | 222 |  |
| O=C(CCN1CCCC1)CSc1c(O)nc2ccc(C(F)(F)F)cc2c1-c1cc(Cl)ccc1O | 30 | 335 |  |  |
| COc1ccc(Cl)cc1-c1c(Sc2ccc(NS(=O)(=O)C(F)(F)F)cc2)c(O)nc2ccc(C(F)(F)F)cc12 | 21 | 235 |  |  |
| CN1CCN(C(=O)CSc2c(O)nc3ccc(C(F)(F)F)cc3c2-c2cc(Cl)ccc2O)CC1 | 14 | 422 |  |  |
| O=C(CSc1c(O)nc2ccc(C(F)(F)F)cc2c1-c1cc(Cl)ccc1O)N1CCN(CCO)CC1 | 22 | 151 |  |  |
| NC(=O)C1CCN(C(=O)CSc2c(O)nc3ccc(C(F)(F)F)cc3c2-c2cc(Cl)ccc2O)CC1 | 67 | 203 |  |  |
